This assay concerns Plasmodium falciparum. Briefly: Antimalarial activity against asexual blood stage of Plasmodium falciparum 3D7 infected in human erythrocytes assessed as inhibition of parasite growth and propagation incubated for 72 hrs by SYBR green dye based fluorescence assay. In kind it is functional, organism-based. As to conditions: 3D7, Erythrocyte.

The structures appear in SMILES notation.

The term IC50 denotes the concentration at which inhibition is half-maximal. With `C[C@@H]1C[C@H](N2C(=N)N[C@](C)(c3cccc(NC(=O)c4cc(C#N)cn4C)c3Cl)CC2=O)CCO1`, the IC50 stood at 5 nM.

On to `C[C@@H]1C[C@H](N2C(=N)N[C@](C)(c3cccc(NC(=O)c4cccc(C#N)c4F)c3Cl)CC2=O)CCO1`, for which the IC50 was 6 nM.

As for `Cc1cc(Cl)cc(C(=O)Nc2cccc([C@]3(C)CC(=O)N([C@@H]4CCO[C@H](C)C4)C(=N)N3)c2Cl)c1`, the half-maximal inhibitory concentration (IC50) is 9 nM.

As to `C[C@@H]1C[C@H](N2C(=N)N[C@](C)(c3cccc(NC(=O)c4cccc(C#N)c4)c3Cl)CC2=O)CCO1`, the IC50 worked out at 8 nM.

On to `C[C@@H]1C[C@H](N2C(=N)N[C@](C)(c3cccc(NC(=O)c4cc(Cl)cc(C#N)c4)c3Cl)CC2=O)CCO1`, for which the IC50 turned out to be 7 nM.

On to `C[C@@H]1C[C@H](N2C(=N)N[C@](C)(c3cccc(NC(=O)c4cccc(Cl)c4)c3Cl)CC2=O)CCO1`, for which the IC50 worked out at 9 nM.

The record behind these values is ChEMBL document CHEMBL4706734, “Novel Hexahydropyrimidine Compounds for Treating Malaria” (ACS Med Chem Lett, 2021).
